Source: ChEMBL document CHEMBL2413072, “Synthesis and in vitro anticancer studies of novel C-2 arylidene congeners of lantadenes” (2013)

Experiments:
Assay type in all cases: functional
IGROV-1 [1] = test: Growth inhibition of human IGROV1 cells assessed as cell growth at 10^-7 M by sulforhodamine B assay; details: read-out: Activity
U-251 = test: Growth inhibition of human U251 cells assessed as cell growth at 10^-4 M by sulforhodamine B assay; details: read-out: Activity
SF-295 = test: Growth inhibition of human SF295 cells assessed as cell growth at 10^-8 M by sulforhodamine B assay; details: read-out: Activity
HOP-92 = test: Growth inhibition of human HOP92 cells assessed as cell growth at 10^-4 M by sulforhodamine B assay; details: read-out: Activity
DU-145 [2] = test: Growth inhibition of human DU145 cells by sulforhodamine B assay
[3] = Growth inhibition of human NCI-ADR-RES cells assessed as cell growth at 10^-4 M by sulforhodamine B assay; details: read-out: Activity
[4] = Growth inhibition of human HCC2998 cells assessed as cell growth at 10^-4 M by sulforhodamine B assay; details: HCC 2998, read-out: Activity
NCI-H522 = test: Growth inhibition of human NCI-H522 cells assessed as cell growth at 10^-8 M by sulforhodamine B assay; details: read-out: Activity
HCT-116 = test: Growth inhibition of human HCT116 cells assessed as cell growth at 10^-7 M by sulforhodamine B assay; details: read-out: Activity
K562 [5] = test: Growth inhibition of human K562 cells assessed as cell growth at 10^-7 M by sulforhodamine B assay; details: read-out: Activity
OVCAR-5 = test: Growth inhibition of human OVCAR5 cells by sulforhodamine B assay
NCI-H322M [6] = test: Growth inhibition of human NCI-H322M cells assessed as cell growth at 10^-7 M by sulforhodamine B assay; details: read-out: Activity
IGROV-1 [7] = test: Growth inhibition of human IGROV1 cells assessed as cell growth at 10^-8 M by sulforhodamine B assay; details: read-out: Activity
TK-10 [8] = test: Growth inhibition of human TK10 cells assessed as cell growth at 10^-4 M by sulforhodamine B assay; details: read-out: Activity
[9] = Growth inhibition of human Hs 578T cells by sulforhodamine B assay
SW-620 [10] = test: Growth inhibition of human SW620 cells assessed as cell growth at 10^-6 M by sulforhodamine B assay; details: read-out: Activity
786-0 = test: Growth inhibition of human 786-0 cells assessed as cell growth at 10^-4 M by sulforhodamine B assay; details: read-out: Activity
SK-OV-3 [11] = test: Growth inhibition of human SKOV3 cells by sulforhodamine B assay
SF-268 = test: Growth inhibition of human SF268 cells assessed as cell growth at 10^-8 M by sulforhodamine B assay; details: read-out: Activity
RPMI-8226 = test: Growth inhibition of human RPMI8226 cells by sulforhodamine B assay
SW-620 [12] = test: Growth inhibition of human SW620 cells assessed as cell growth at 10^-7 M by sulforhodamine B assay; details: read-out: Activity
HOP-62 = test: Growth inhibition of human HOP62 cells assessed as cell growth at 10^-8 M by sulforhodamine B assay; details: read-out: Activity
A549 = test: Growth inhibition of human A549/ATCC cells by sulforhodamine B assay
SK-OV-3 [13] = test: Growth inhibition of human SKOV3 cells assessed as cell growth at 10^-7 M by sulforhodamine B assay; details: read-out: Activity
OVCAR-4 = test: Growth inhibition of human OVCAR4 cells assessed as cell growth at 10^-4 M by sulforhodamine B assay; details: read-out: Activity
MDA-MB-468 = test: Growth inhibition of human MDA-MB-468 cells assessed as cell growth at 10^-7 M by sulforhodamine B assay; details: read-out: Activity
LOX IMVI [14] = test: Growth inhibition of human LOXIMVI cells assessed as cell growth at 10^-6 M by sulforhodamine B assay; details: read-out: Activity
CAKI-1 = test: Growth inhibition of human CAKI-1 cells assessed as cell growth at 10^-8 M by sulforhodamine B assay; details: read-out: Activity
UACC-257 = test: Growth inhibition of human UACC257 cells assessed as cell growth at 10^-7 M by sulforhodamine B assay; details: read-out: Activity
CCRF-CEM = test: Growth inhibition of human CCRF-CEM cells assessed as cell growth at 10^-7 M by sulforhodamine B assay; details: read-out: Activity
TK-10 [15] = test: Growth inhibition of human TK10 cells assessed as cell growth at 10^-7 M by sulforhodamine B assay; details: read-out: Activity
A498 = test: Growth inhibition of human A498 cells assessed as cell growth at 10^-7 M by sulforhodamine B assay; details: read-out: Activity
NCI-H322M [16] = test: Growth inhibition of human NCI-H322M cells assessed as cell growth at 10^-4 M by sulforhodamine B assay; details: read-out: Activity
TK-10 [17] = test: Growth inhibition of human TK10 cells by sulforhodamine B assay
RXF 393 = test: Growth inhibition of human RXF393 cells assessed as cell growth at 10^-7 M by sulforhodamine B assay; details: read-out: Activity
DU-145 [18] = test: Growth inhibition of human DU145 cells assessed as cell growth at 10^-7 M by sulforhodamine B assay; details: read-out: Activity
COLO 205 = test: Growth inhibition of human COLO205 cells by sulforhodamine B assay
BT-549 = test: Growth inhibition of human BT549 cells assessed as cell growth at 10^-6 M by sulforhodamine B assay; details: read-out: Activity
K562 [19] = test: Growth inhibition of human K562 cells assessed as cell growth at 10^-6 M by sulforhodamine B assay; details: read-out: Activity
LOX IMVI [20] = test: Growth inhibition of human LOXIMVI cells assessed as cell growth at 10^-7 M by sulforhodamine B assay; details: read-out: Activity
[21] = read-out: LC50 (the source's name)
[22] = read-out: pLC50 (the source's name) (converted)

C/C=C(/C)C(=O)O[C@@H]1CC(C)(C)C[C@H]2C3=CC[C@@H]4[C@@]5(C)CC[C@H](O)C(C)(C)[C@@H]5CC[C@@]4(C)[C@]3(C)CC[C@@]12C(=O)O [Reduced Lantadene A]
growth at 0.1 µM (IGROV-1 [1]): 111%
growth at 100 µM (U-251): -52%
growth at 0.01 µM (SF-295): 93%
growth at 100 µM (HOP-92): -73%
GI50 (DU-145 [2]; read-out: GI50): 2.12 µM
TGI (DU-145 [2]; read-out: TGI): 4.04 µM
GI50 (DU-145 [2]; read-out: pGI50 (converted)): 2.14 µM
TGI (DU-145 [2]; read-out: pTGI (converted)): 4.07 µM
growth at 100 µM [3]: -30%
growth at 100 µM [4]: -58%
growth at 0.01 µM (NCI-H522): 102%
growth at 0.1 µM (HCT-116): 95%
growth at 0.1 µM (K562 [5]): 105%
GI50 (OVCAR-5; read-out: GI50): 3.38 µM
CC50 (OVCAR-5; [21]): 45.5 µM
TGI (OVCAR-5; read-out: TGI): 8.9 µM
GI50 (OVCAR-5; read-out: pGI50 (converted)): 3.39 µM
CC50 (OVCAR-5; [22]): 45.7 µM
TGI (OVCAR-5; read-out: pTGI (converted)): 8.91 µM
growth at 0.1 µM (NCI-H322M [6]): 98%
growth at 0.01 µM (IGROV-1 [7]): 109%
growth at 100 µM (TK-10 [8]): -69%
GI50 ([9]; read-out: GI50): 2.13 µM
CC50 [9, 21]: > 100 µM
TGI ([9]; read-out: TGI): 5.21 µM
GI50 ([9]; read-out: pGI50 (converted)): 2.14 µM
CC50 [9, 22]: > 100 µM
TGI ([9]; read-out: pTGI (converted)): 5.25 µM
growth at 1 µM (SW-620 [10]): 90%
growth at 100 µM (786-0): -55%
GI50 (SK-OV-3 [11]; read-out: GI50): 1.87 µM
GI50 (SK-OV-3 [11]; read-out: pGI50 (converted)): 1.86 µM
growth at 0.01 µM (SF-268): 101%
GI50 (RPMI-8226; read-out: GI50): 1.85 µM
CC50 (RPMI-8226; [21]): > 100 µM
TGI (RPMI-8226; read-out: TGI): 8.71 µM
GI50 (RPMI-8226; read-out: pGI50 (converted)): 1.86 µM
CC50 (RPMI-8226; [22]): > 100 µM
TGI (RPMI-8226; read-out: pTGI (converted)): 8.71 µM
growth at 0.1 µM (SW-620 [12]): 95%
growth at 0.01 µM (HOP-62): 93%
GI50 (A549; read-out: GI50): 1.19 µM
CC50 (A549; [21]): 6.37 µM
TGI (A549; read-out: TGI): 2.76 µM
GI50 (A549; read-out: pGI50 (converted)): 1.2 µM
CC50 (A549; [22]): 6.31 µM
TGI (A549; read-out: pTGI (converted)): 2.75 µM
growth at 0.1 µM (SK-OV-3 [13]): 102%
growth at 100 µM (OVCAR-4): -21%
growth at 0.1 µM (MDA-MB-468): 86%
growth at 1 µM (LOX IMVI [14]): 97%
growth at 0.01 µM (CAKI-1): 96%
growth at 0.1 µM (UACC-257): 88%
growth at 0.1 µM (CCRF-CEM): 100%
growth at 0.1 µM (TK-10 [15]): 108%
growth at 0.1 µM (A498): 77%
growth at 100 µM (NCI-H322M [16]): -71%
GI50 (TK-10 [17]; read-out: GI50): 2.25 µM
CC50 (TK-10 [17]; [21]): 9.55 µM
TGI (TK-10 [17]; read-out: TGI): 4.63 µM
GI50 (TK-10 [17]; read-out: pGI50 (converted)): 2.24 µM
CC50 (TK-10 [17]; [22]): 9.55 µM
TGI (TK-10 [17]; read-out: pTGI (converted)): 4.68 µM
growth at 0.1 µM (RXF 393): 95%
growth at 0.1 µM (DU-145 [18]): 115%
GI50 (COLO 205; read-out: GI50): 2.11 µM
GI50 (COLO 205; read-out: pGI50 (converted)): 2.09 µM
growth at 1 µM (BT-549): 95%
growth at 1 µM (K562 [19]): 85%
growth at 0.1 µM (LOX IMVI [20]): 100%
